According to paper PMC7481357, “N-terminal Myristoylation Enhanced the Antimicrobial Activity of Antimicrobial Peptide PMAP-36PW” (Frontiers in Cellular and Infection Microbiology, 2020):
Entries after “also recorded” stand apart in the source; their conditions may differ. Residues, ends and D or L forms follow the SMILES beside them. *: point of attachment. Myristoyl = CCCCCCCCCCCCCC(=O)*

Experiments:
S. aureus ATCC 25923 = assay: Peritonitis model; assay type: in vivo, BALB/c mice; settings: intraperitoneal 60 μL, 1 μg/μL, once a day for 3 days; for Liver pathogenic scores: compared with PBS group; for Liver pathogenic scores / Bacterial CFU in liver and spleen homogenate / Spleen pathogenic scores: n = 5
Experimental: The peritonitis model in vivo was generated by intraperitoneally injecting S. aureus ATCC 25923 (2.5 × 10^9 CFU/mL, 140 μL). Sixty mice were randomly divided into six groups of 10 members: those who received no infection and treatment was used as a blank control, those with […] administration of PBS (60 μL) as the negative control group, those administered with benzylpenicillin potassium (60 μL, 1 μg/μL) as the positive control group, and the remaining three groups corresponded to three antimicrobial peptide groups of Myr-36PW (60 μL, 1 μg/μL), PMAP-36PW (60 μL, 1 μg/μL), and PMAP-36 (60 μL, 1 μg/μL). After 4 h post-inoculation, treatment was initiated by intraperitoneal injection once a day for 3 days. The mice were sacrificed 24 h the treatment. Changes in the appearance of anatomical tissues were observed. The liver and spleen tissues were removed aseptically from the mice, and half of these samples were gently fixed in buffered formaldehyde solution for histopathological assessment by hematoxylin and eosin (H&E) staining. Pathological changes were scored to assess individual therapeutic status as described previously (Song et al., [2015]; Lei et al., [2018]). The remaining half of livers and spleens were added with 1 mL of PBS, homogenized, and serially diluted. Bacterial CFU counts were measured.
Figure 9 Therapeutic potency of peritonitis by Myr-36PW in vivo. The livers and spleens (n = 5) in each group were collected on day 4 after the intraperitoneal injection of S. aureus ATCC 25923. (A) Morphological changes in liver and spleen tissues. (B) Representative histopathological images of processed liver and spleen sections with hematoxylin and eosin (H&E) staining. Images are presented at a magnification of 40×. a: central venous hemorrhage. b: the cells fuse into pieces, and the nucleus dissolves and disappears. c: cytoplasmic cavitation. (C,D) Pathological scores of the liver and spleen sections. Scoring standard: 1 indicated no pathology, 2 indicated perivascular infiltrates, 3 indicated perivascular or interstitial infiltrates affecting <20% of the section, 4 indicated perivascular or interstitial infiltrates affecting 20–50% of the section, and 5 indicated perivascular or interstitial infiltrates affecting >50% of the section. (E,F) Bacterial CFU in liver and spleen homogenate. BP is benzylpenicillin potassium. Data represent the mean ± SD of five individual experiments.

[1] = test system: L. monocytogenes CICC 21634; assay: Inhibition zone assay (disk diffusion); assay type: cell-based, Listeria monocytogenes; set-up: key: +, means the peptide has antibacterial activity; settings: disk 10 μg peptide, 18 h at 37°C, * P < 0.05, ** P < 0.01 vs PMAP-36PW
Experimental: The inhibition zone assay was performed through the disk diffusion to evaluate the antimicrobial activity of Myr-36PW in vitro (Dunne et al., [2017]). The four above-mentioned bacterial strains were used as experimental strains, with L. monocytogenes CICC 21634 cultured in BHI medium, and P. aeruginosa GIM 1.551 cultured in TSB medium. The bacterial cells were cultured for 12 h at 37°C in the appropriate medium, and the bacterial cell suspension was spread on LB agar. The disks containing 10 μg of peptides (1 μg/μL) were attached to the solid medium and incubated at 37°C for 18 h. Finally the diameter of the inhibition zone was measured.

P. aeruginosa GIM 1.551 = assay: Pneumonia (lung infection) model; assay type: in vivo, BALB/c mice; settings: intranasal 40 μL, 1 μg/μL, once a day for 3 days
Experimental: A pneumonia model in vivo was established as previously reported, with minor modification (Cortés et al., [2002]; Aoki et al., [2009]; Shi et al., [2018]). A total of 120 mice were randomly divided into two experimental models, one was intranasal inoculation of S. aureus ATCC 25923 (8.3 × 10^9 CFU/mL, 50 μL), and the other was intranasal inoculation of P. aeruginosa GIM 1.551 (4.5 × 10^10 CFU/mL, 50 μL). In the S. aureus ATCC 25923 model, 60 mice were divided into the following six groups of 10 mice each: no infection and treatment was used as a blank control, those with intranasal administration of PBS (40 μL) as the negative control group, those administered with benzylpenicillin potassium (40 μL, 1 μg/μL) as the positive control group, and the remaining three corresponded to Myr-36PW (40 μL, 1 μg/μL), PMAP-36PW (40 μL, 1 μg/μL), and PMAP-36 groups (40 μL, 1 μg/μL). The procedure for P. aeruginosa GIM 1.551 model is the same as for S. aureus ATCC 25923 model, except for the use of ampicillin sodium as the positive control. After 4 h post-inoculation, treatment was initiated, once a day for 3 days. The mice were sacrificed 24 h after the treatment. Changes in the appearance of lung tissues were observed, and lung tissues were removed aseptically from the mice. Half of the removed lung tissues were gently fixed in buffered formaldehyde solution for histopathological assessment by hematoxylin and eosin (H&E) staining. Pathological changes were scored to provide individual therapeutic status as described previously (Lei et al., [2018]). The remaining lung tissues were added with 1 mL of PBS, homogenized, and serially diluted. Bacterial CFU counts were determined.
Figure 8 Therapeutic effect for pneumonia by Myr-36PW in vivo. Mice were injected with S. aureus ATCC 25923 or P. aeruginosa GIM 1.551 to form pneumonia, and lungs (n = 5) in each group were collected on day 4 after intranasal bacterial inoculation. (A) Morphological changes of lung tissues. (B) Representative histopathological images of processed lung section with hematoxylin and eosin (H&E) staining. Images are presented at a magnification of 20×. a: inflammatory cell infiltration. b: the alveolar wall is thickened. c: alveolar wall congestion or alveolar hemorrhage. (C,D) Pathological scores of the lung sections. Scoring standard: 1 indicated no pathology, 2 indicated local pulmonary congestion and inflammatory cell infiltration, 3 indicated pulmonary congestion and a large number of inflammatory cell infiltration, affecting <20% of the section, 4 indicated pulmonary congestion and a large number of inflammatory cell infiltration, affecting 20–50% of the section, and 5 indicated pulmonary congestion and a large number of inflammatory cell infiltration, affecting >50% of the section. (E,F) Bacterial CFU in lung homogenate. BP is benzylpenicillin potassium, AS is ampicillin sodium. Data represent the mean ± SD of five individual experiments.

`CC1(C)S[C@@H]2[C@H](NC(=O)Cc3ccccc3)C(=O)N2[C@H]1C(=O)O` [Benzylpenicillin potassium] was tested, and the “Liver and spleen histopathology (H&E)” value (S. aureus ATCC 25923) was “the liver cells of mice were neatly arranged with clear cell boundaries and no pathological changes in spleen tissues”, the Liver pathogenic scores (S. aureus ATCC 25923) was “significantly lower than PBS group (P < 0.01)” and the “Bacterial CFU in liver and spleen homogenate” value (S. aureus ATCC 25923) was “significantly decreased compared with that of PMAP-36PW group (P < 0.05)”. The Spleen pathogenic scores (S. aureus ATCC 25923) was “displayed significant difference (P < 0.01); also recorded: lower than those for PMAP-36PW group (P < 0.05)”.

`CCCCCCCCCCCCCC(=O)NCC(=O)NCC(=O)N[C@@H](CCCNC(=N)N)C(=O)N[C@@H](Cc1ccccc1)C(=O)N[C@@H](CCCNC(=N)N)C(=O)N[C@@H](CCCNC(=N)N)C(=O)N[C@@H](CC(C)C)C(=O)N[C@@H](CCCNC(=N)N)C(=O)N[C@@H](CCCCN)C(=O)N[C@@H](CCCCN)C(=O)N[C@H](C(=O)N[C@@H](CCCNC(=N)N)C(=O)N[C@@H](CCCCN)C(=O)N[C@@H](CCCNC(=N)N)C(=O)N[C@@H](CC(C)C)C(=O)N[C@@H](CCCCN)C(=O)N[C@@H](CCCCN)C(=O)N[C@H](C(=O)NCC(=O)N[C@@H](CCCCN)C(=O)N[C@H](C(=O)N[C@@H](CC(C)C)C(=O)N[C@@H](CCCCN)C(=O)N[C@@H](Cc1c[nH]c2ccccc12)C(=O)N[C@H](C(=O)N[C@@H](Cc1c[nH]c2ccccc12)C(=O)N[C@@H](Cc1c[nH]c2ccccc12)C(=O)N[C@H](C(=O)N[C@H](C(=O)NCC(=O)N[C@@H](CO)C(=O)N[C@H](C(=O)N1CCC[C@H]1C(=O)N[C@@H](CC(C)C)C(=O)NCC(=O)N[C@@H](CS)C(=O)NCC(=O)O)[C@@H](C)CC)C(C)C)[C@@H](C)CC)[C@@H](C)CC)C(C)C)[C@@H](C)CC)[C@@H](C)O` [Myr-36PW] (Myristoyl-GGRFRRLRKKTRKRLKKIGKVLKWIWWIVGSIPLGCG-OH; C-terminus assumed) was tested, and the “In vitro antibacterial activity (disk diffusion)” value [1] was “+**”, the “Lung histopathology (H&E)” value (P. aeruginosa GIM 1.551) was “a complete alveolar structure, reduced blood stasis, and large reduction in inflammatory cells” and the “Bacterial CFU in lung homogenate” value (P. aeruginosa GIM 1.551; n = 5) was “decreased the P. aeruginosa GIM 1.551 CFU level compared with the PMAP-36PW group (P < 0.05)”. For the same molecule, the “Pathological scores of the lung sections” value (P. aeruginosa GIM 1.551; n = 5) was “lower scores than PMAP-36PW group (P < 0.05)”, the “Liver and spleen histopathology (H&E)” value (S. aureus ATCC 25923) was “the liver cells of mice were neatly arranged with clear cell boundaries and no pathological changes in spleen tissues” and the Liver pathogenic scores (S. aureus ATCC 25923) was “significantly lower than PBS group (P < 0.01)”. The “Bacterial CFU in liver and spleen homogenate” value (S. aureus ATCC 25923) was “significantly decreased compared with that of PMAP-36PW group (P < 0.05)” and the Spleen pathogenic scores (S. aureus ATCC 25923) was “displayed significant difference (P < 0.01); also recorded: lower than those for PMAP-36PW group (P < 0.05)”.
